Measurements: ChEMBL document CHEMBL1201862, “PubChem BioAssay data set” (2004)
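Results reflect a 48-hour exposure of cells in 96-well plates to compound at five concentrations. At the GI50, growth is halved.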 Calls of active or inactive are those of the source. Rule as the data show it: active = GI50 up to about 1.1 µM and inactive = higher.

Experiments:
Assay in all cases: growth of human tumour cells (NCI), 48 h
OVCAR-3 = system: OVCAR-3
A549 = system: A549
RPMI-8226 = system: RPMI-8226
A498 = system: A498
U-251 = system: U-251
MOLT-4 = system: MOLT-4
MDA-N = system: MDA-N
PC-3 = system: PC-3
EKVX = system: EKVX
ACHN = system: ACHN
UACC-62 = system: UACC-62
SF-295 = system: SF-295
SNB-19 = system: SNB-19
COLO 205 = system: COLO 205
SW-620 = system: SW-620
HCT-15 = system: HCT-15
SN12C = system: SN12C
KM12 = system: KM12
K562 = system: K562
CAKI-1 = system: CAKI-1
IGROV-1 = system: IGROV-1
HOP-92 = system: HOP-92
SK-OV-3 = system: SK-OV-3
UACC-257 = system: UACC-257
SK-MEL-2 = system: SK-MEL-2
MDA-MB-231 = system: MDA-MB-231
LOX IMVI = system: LOX IMVI
NCI/ADR-RES = system: NCI/ADR-RES
SK-MEL-28 = system: SK-MEL-28
HL-60 = system: HL-60
UO-31 = system: UO-31
SNB-75 = system: SNB-75
NCI-H226 = system: NCI-H226
M14 = system: M14
MDA-MB-435 = system: MDA-MB-435
DU-145 = system: DU-145
786-0 = system: 786-0
HT-29 = system: HT-29
OVCAR-8 = system: OVCAR-8
CCRF-CEM = system: CCRF-CEM
MCF7 = system: MCF7
OVCAR-4 = system: OVCAR-4
SR = system: SR
HCT-116 = system: HCT-116
SF-539 = system: SF-539
RXF 393 = system: RXF 393
OVCAR-5 = system: OVCAR-5
SK-MEL-5 = system: SK-MEL-5
HCC 2998 = system: HCC 2998
TK-10 = system: TK-10

With `Cc1cc2c(C(C)C)c(O)c(O)c(C=O)c2c(O)c1-c1c(C)cc2c(C(C)C)c(O)c(O)c(C=O)c2c1O` the GI50 (OVCAR-3) was 2.3 µM (inactive), the GI50 (A549) was 5.69 µM (inactive) and the GI50 (RPMI-8226) was 4.38 µM (inactive). The GI50 (A498) was 4.47 µM (inactive), the GI50 (U-251) was 3.52 µM (inactive) and the GI50 (MOLT-4) was 2.24 µM (inactive). For the same compound, the GI50 (MDA-N) was 87.7 µM (inactive), the GI50 (PC-3) was 5.04 µM (inactive) and the GI50 (EKVX) was 1.32 µM (inactive). For the same compound, the GI50 (ACHN) was 5.51 µM (inactive), the GI50 (UACC-62) was 4.7 µM (inactive) and the GI50 (SF-295) was 2.81 µM (inactive). For the same compound, the GI50 (SNB-19) was 7.24 µM (inactive), the GI50 (COLO 205) was 4.35 µM (inactive) and the GI50 (SW-620) was 7.06 µM (inactive). For the same compound, the GI50 (HCT-15) was 5.18 µM, the GI50 (SN12C) was 6.14 µM (inactive) and the GI50 (KM12) was 2.07 µM (inactive). The GI50 (K562) was 2.16 µM (inactive) and the GI50 (CAKI-1) was 3.39 µM (inactive).

In the case of `CCCCOCn1c(=O)[nH]c(=O)c2cc(Br)ccc21`, the GI50 (OVCAR-3) is reported as 45.9 µM (inactive), the GI50 (IGROV-1) is reported as 40.6 µM (inactive) and the GI50 (A549) is reported as 48.2 µM (inactive). The GI50 (A498) was 54.6 µM (inactive), the GI50 (U-251) was 95.1 µM (inactive) and the GI50 (HOP-92) was 51.1 µM (inactive). The GI50 (SK-OV-3) was > 100 µM (inactive), the GI50 (UACC-257) was 43.9 µM (inactive) and the GI50 (SK-MEL-2) was 40.2 µM (inactive). For the same compound, the GI50 (MDA-MB-231) was 33.8 µM (inactive), the GI50 (LOX IMVI) was 58.5 µM (inactive) and the GI50 (NCI/ADR-RES) was 19.1 µM (inactive). The GI50 (SK-MEL-28) was > 100 µM (inactive), the GI50 (MOLT-4) was 44.1 µM (inactive) and the GI50 (MDA-N) was 55.2 µM (inactive). For the same compound, the GI50 (PC-3) was 35.2 µM (inactive), the GI50 (HL-60) was 42.5 µM (inactive) and the GI50 (EKVX) was 22.6 µM (inactive). The GI50 (UO-31) was 18.5 µM (inactive), the GI50 (ACHN) was 14.3 µM (inactive) and the GI50 (SNB-75) was 39.7 µM (inactive). For the same compound, the GI50 (NCI-H226) was 12.6 µM (inactive), the GI50 (M14) was 87.1 µM (inactive) and the GI50 (MDA-MB-435) was 68.2 µM (inactive). The GI50 (DU-145) was > 100 µM (inactive), the GI50 (UACC-62) was 42.5 µM (inactive) and the GI50 (786-0) was 53.3 µM (inactive). The GI50 (HT-29) was 23.4 µM (inactive), the GI50 (SF-295) was 54.6 µM (inactive) and the GI50 (SNB-19) was 33.2 µM (inactive). The GI50 (OVCAR-8) was 31.1 µM (inactive), the GI50 (CCRF-CEM) was 59.4 µM (inactive) and the GI50 (MCF7) was 42.5 µM (inactive). The GI50 (COLO 205) was 72.1 µM (inactive), the GI50 (SW-620) was > 100 µM (inactive) and the GI50 (OVCAR-4) was 49.3 µM (inactive). For the same compound, the GI50 (SR) was 46.2 µM (inactive), the GI50 (HCT-116) was 38.5 µM (inactive) and the GI50 (SF-539) was > 100 µM (inactive). The GI50 (RXF 393) was 42.3 µM (inactive), the GI50 (OVCAR-5) was > 100 µM (inactive) and the GI50 (HCT-15) was 44.2 µM. For the same compound, the GI50 (SK-MEL-5) was 33.1 µM (inactive), the GI50 (SN12C) was 48.1 µM (inactive) and the GI50 (HCC 2998) was > 100 µM (inactive). For the same compound, the GI50 (TK-10) was 53.5 µM (inactive), the GI50 (KM12) was 36.5 µM (inactive) and the GI50 (K562) was 51.8 µM (inactive). The GI50 (CAKI-1) was 20.8 µM (inactive).
